# According to patent US20240293344A1, “Unsaturated Hydroxamic Acid Derivatives and Their Use for the Treatment and Prevention of an Ammonia-Associated Disease or Disorder” (Versantis AG, priority 2021, published 2024):
# Like-named read-outs stand apart in the source and are kept apart here.
# Experiments:
# bacterial urease = test: Rat caecum content assay (urease inhibitory activity, ammonia production from urea); type: cell-based, bacteria of rat caecum content
# Procedure: To evaluate the inhibitory activity of HAs, the inventors first established an in vitro assay using rat caecum content.
# The use of caecum content samples for the initial screening of urease inhibitors allowed to rapidly identify stable and membrane permeable inhibitors that cover a broad spectrum of bacterial ureases present in the gastrointestinal tract.
# According to the herein established protocol, rat caecum content provided by the ETH Phenomics center was diluted in 200 mM potassium phosphate monobasic buffer pH 6.8 and centrifuged at 100×g to remove large particles. The supernatant with dispersed bacteria was collected, mixed with urea and then incubated with an increasing range of inhibitor concentrations for 30 min at 37° C. with constant shaking. In this setup initial concentrations of bacteria and urea were adjusted to the values that lead to the production of ammonia at a final concentration of approximately 1000 μM. Bacterial urease converts urea to ammonia, which was quantified by an enzymatic assay (Ammonia assay, Randox Laboratories, UK).
# The established assay was then used to evaluate the potency of commercially available HAs as well as synthesized HAs of the present disclosure. As most of the tested HAs have low aqueous solubility, cyclodextrins were used to prepare water-soluble formulations of the compounds. In this study, a stock solution of acetohydroxamic acid (AHA) was prepared in DMSO, and stock solutions of octanohydroxamic acid (OHA) and 2-octynohydroxamic acid (2-octynoHA) were prepared by dissolving them in aqueous solutions of 2-hydroxypropyl-p-cyclodextrin (HPβCD) in 1:2 and 1:4 molar ratios, respectively. The obtained mixtures were sonicated and heated at 37° C. until fully dissolved.
# Besides 2-octynoHA, the urease inhibitory activity of other unsaturated alkylated HAs consisting of 8 carbons was assessed. These included 2-octenohydroxamic acid (2-octenoHA), 3-octenohydroxamic acid (3-octenoHA), 3-octynohydroxamic acid (3-octynoHA) and 7-octynohydroxamic acid (7-octynoHA). Prior to assessing potency in the rat caecum content assay, stock solutions of 2-octenoHA and 3-octenoHA were prepared using HPβCD solution (1:4 molar ratio of HA to HPβCD), stock solutions of 3-octynoHA and 7-octynoHA were prepared using mixture of 10% DMSO and HPβCD solution. The 7-octynoHA presented a lower potency than unsaturated alkylated HAs having a double/triple bond at positions 2 or 3.
# [1] = Stability of 2-octynoHA in solution (UHPLC-UV); type: physicochemical
# Procedure: Preliminary stability of 2-octynoHA was assessed in HBSS pH 7.4 supplemented with HEPES 15 mM and compared to stability of the molecule in ultra-pure water.
# Both solutions of 2-octynoHA were prepared to a final concentration of 0.5 mg/mL. 2-octynoHA was incubated for ca. 20 min at 37° C. until fully dissolved in the corresponding media. Once solutions were prepared, they were subjected to UHPLC-UV analysis within ca. 1 h while being kept at room temperature. For chromatographic separation and spectrophotometric analysis, 2 μL of each solution were injected. The chromatographic separation was performed on a 10 cm Polar C18 UHPLC column with a mobile phase composed of water, acetonitrile and formic acid 0.1%.
# Detection was performed on a diode array detector by monitoring UV absorbance at 200 nm. 2-octynoHA was detected at 200 nm with RT=5.36 min in both solutions.
# In order to identify the product of degradation, a solution of 2-octynoHA 10 mM was prepared in phosphate buffer (KH2PO4 200 mM pH 6.8) and left to incubate overnight at 37° C. […] The product of degradation was then extracted with chloroform, the organic phase was collected, dried over Na2SO4 and filtered. The solvent was evaporated, the obtained substance was dissolved in deuterated dimethyl sulfoxide (DMSO-d6) for ^1H NMR analysis.
# [2] = test system: mixture of E. coli strains (wp2 [pKM101] and wp2 uvrA); test: Ames test (Ames MPF Penta 1), E. coli strain mixture; type: cell-based; details: with or without metabolic activation (S9)
# Text: A commercial microplate format test kit (Ames MPF™ Penta 1, Xenometrix, Switzerland) was used for this experiment. […] The mutagenicity of the three hydroxamic acids was investigated in four S. typhimurium strains (TA98, TA100, TA1535, TA1537) and in the mixture of two E. coli strains (wp2 [pKM101] and wp2 uvrA) with and without metabolic activation (S9 fraction) according to the manufacturer's protocol.
# [3] = test system: N-Nitrosodiethylamine induced liver disease in rats; test: In vivo efficacy in N-nitrosodiethylamine (DEN) induced liver disease in rats, blood ammonia; set-up: species or system rat; details: gavage twice a day from day 3, n=10
# Procedure: Efficacy of 2-octynoHA was assessed in male Sprague Dawley rats (Beijing Vital River Laboratory Animal Technology Co., Ltd, China) in a model of acute liver disease. The liver damage was induced by reoccurring intraperitoneal injections of N-nitrosodiethylamine (DEN) 60 mg/kg on days 1, 3, 5, and 7.
# Four groups of rats were included. The first control group was treated with a solution of HPβCD 270 mg/kg (n=10). The second group was treated with a suspension of rifaximin 30 mg/kg (n=10). The third group was treated with a suspension of rifaximin 60 mg/kg (n=10). The fourth group was treated with 15 mg/kg of 2-octynoHA dissolved in HPβCD solution (1:1 molar ratio of 2-octynoHA to HPβCD) (n=10). All groups received the treatment via gavage twice a day from day 3 to day 8. Blood samples were collected sublingually on days 0, 6 and 8. Blood ammonia level was measured in collected samples using PocketChem™ (Arkray, Japan).
# Caco-2 cells [4] = test: Cytotoxicity in Caco-2 cells (CCK-8); details: 24 h; for Caco-2 cell viability (percentage of the medium control): 10 mM
# Procedure: (§1) The compounds used were 2-octynoHA, OHA (Tokyo Chemical Industry Co., Ltd.; Japan) and AHA (Sigma-Aldrich, St. Louis, MO) The human colorectal adenocarcinoma cell line Caco-2 was obtained from American Type Culture Collection. The cells were cultured in complete medium containing DMEM (Dulbecco's modified Eagle's medium) high glucose, GlutaMax™, pyruvate (Thermo Fisher Scientific, Waltham, MA) supplemented with 10% fetal bovine serum (Thermo Fisher Scientific, Waltham, MA), 1% penicillin-streptomycin (Thermo Fisher Scientific, Waltham, MA) and 15 mM HEPES (Thermo Fisher Scientific, Waltham, MA). The cells were incubated at 37° C. in a humidified atmosphere with 5% CO2. Caco-2 cells were used in the experiments from passage 50 to 60 and were tested negative for mycoplasma.
# (§2) The cytotoxicity of HAs was assessed using Cell Counting Kit-8 (CCK-8, Sigma-Aldrich, St. Louis, MO), a colorimetric assay based on tetrazolium salt WST-8 which is reduced by dehydrogenases in cells to an orange-colored formazan. The absorbance of formazan at 450 nm is directly proportional to the number of living cells.
# (§3) In order to test cytotoxicity of HAs, Caco-2 cells were seeded in a 96-well plate at a density of 5×10^3 cell/well and grown for 1 day. Then, cells were treated with an increasing range of inhibitors' concentrations and incubated for another 24 h at 37° C., 5% CO2. […] After incubation, cells were washed with phosphate buffered saline (Thermo Fisher Scientific, Waltham, MA), treated with DMEM without phenol red (Thermo Fisher Scientific, Waltham, MA) containing CCK-8 reagent and incubated for another 2 h at 37° C. in a humidified atmosphere with 5% CO2. The absorbance of medium at 450 nm was measured using Tecan Infinite M200 PRO plate reader. Caco-2 cell viability was calculated as a percentage of the medium control.
# [5] = test system: bile-duct ligated (BDL) rat model of hepatic encephalopathy; test: In vivo efficacy in bile-duct ligated (BDL) rats, blood ammonia; details: 30 mg/kg twice a day by gavage in HPβCD solution, dropped from 53±30.31 μmol/L before treatment, n=4
# Procedure: Efficacy of 2-octynoHA was evaluated in the bile-duct ligated (BDL) rat model, which is recommended by the International Society for Hepatic Encephalopathy and Nitrogen Metabolism (ISHEN) as an animal model of hepatic encephalopathy (HE) associated with chronic liver cirrhosis. This model is obtained by obstruction of the common bile duct that causes impairment of liver function and thereby development of hyperammonemia and low-grade HE.
# In this study, on the DO blood ammonia levels were measured (n=4, 27.25±6.18 μmol/L) using PocketChem™ (Arkray, Japan) after which all rats were subjected to the BDL surgery. Right before surgery all animals were given injection of slow-release buprenorphine (lasting 72 h) between the shoulder blades. Then, animals were anesthetized with isoflurane in O2. Depth of anesthesia was checked by toe-pinching. Further, a midline incision was made (2 cm), and then the common bile duct was isolated of surrounding tissue, tightly ligated twice with silk suture and cut between the 2 ligations. Abdominal incision was closed with Vicryl™ 4-0 for muscle layers; skin was closed with staples and one drop of Vetbond™ tissue glue was applied to secure closing. Animals were then placed on heating pad for recovery. For the first 4 weeks post-surgery, animals were monitored for pain level, extent of jaundice, body weight (BW) and disease scores. […]
# [6] = test system: S. typhimurium strains (TA98, TA100, TA1535, TA1537); test: Ames test (Ames MPF Penta 1), S. typhimurium strains
# Text: A commercial microplate format test kit (Ames MPF™ Penta 1, Xenometrix, Switzerland) was used for this experiment. The most commonly used strains in the Ames tests, S. typhimurium with point mutations in the histidine operon and E. coli with mutations in the tryptophan operon were utilized as the model systems. The mutagenicity of the three hydroxamic acids was investigated in four S. typhimurium strains (TA98, TA100, TA1535, TA1537) and in the mixture of two E. coli strains (wp2 [pKM101] and wp2 uvrA) with and without metabolic activation (S9 fraction) according to the manufacturer's protocol.
# Bacteria were exposed to 6 concentrations of the test compounds, solvent control (DMSO) and positive control substances (concentrations listed in Tables I-II below) for 90 min in the medium containing enough histidine for S. typhimurium or tryptophan for E. coli to support cell growth. After that, the cultures media were diluted with pH indicator solution lacking histidine or tryptophan and aliquoted into 48 wells of a 384-well plate. Within 48 hours, media containing cells that reverted to amino acid prototrophy turned yellow as bacteria metabolism reduced the pH of the media. The number of yellow wells containing revertant colonies was counted for each dose of the test compounds and compared to the solvent control.
# [7] = Pharmacokinetics in male beagle dogs (plasma); type: in vivo, dog; details: for bioavailability: dog
# Text: The main objective of the experiment was to quantify the levels of 2-octynoHA in the plasma of male beagle dogs following I.V. administration of a solution of 2-octynoHA with HPβCD (1:1 molar ratio) (PK 1), oral (P.O.) administration of 2-octynoHA formulated in an uncoated gelatin capsule size 0 (PK 2), and oral administration of 2-octynoHA formulated in a coated (Eudragit S100 15% w/w, triethyl citrate 5% w/w, isopropyl alcohol 40% w/w, ethanol 40% w/w) gelatin capsule size 0 for colonic delivery (PK 3) (Table Ill). For each of the studies, three animals were administered with a single dose of the corresponding treatment. Plasma samples were collected at pre-determined time points (Table Ill).
# In PK 1, the plasma samples were extracted by protein precipitation prior to analysis. In brief, 40 μL plasma was precipitated with 2 volumes (80 μL) of an organic solvent solution consisting of acetonitrile:methanol (80:20 v/v) containing 1% formic acid. Samples were vortex-mixed and centrifuged at 13,000 rpm. 100 μL of supernatant were further diluted with 100 μL water containing 0.1% formic acid (final dilution factor of 6×). The sample extracts were transferred into a 96-well plate. Four μL plasma extract were injected for chromatographic separation and high resolution/accurate mass analysis. Separation was performed on a 5 cm C18 UPLC column, detection and quantification were performed on a quadrupole time-of-flight (QTof) mass spectrometer in the positive ion mode.
# In both PK 2 and PK 3, prior to extraction, plasma samples (ca. 700 μL) were acidified by adding 15 μL of 50% phosphoric acid in water. Then, plasma samples (40 μL) were extracted by protein precipitation by adding 2 volumes (80 μL) of an organic solvent solution consisting of acetonitrile:methanol (80:20 v/v) containing 0.2% formic acid.
# Samples were vortex-mixed and centrifuged at 13,000 rpm for 5 min. 100 μL of supernatant were further diluted with 100 μL water containing 0.1% formic acid (final dilution factor of 6×). The sample extracts were transferred into a 96-well plate. Five μL were injected for chromatographic separation and further mass analysis. The chromatographic separation was performed on a 10 cm C18 UPLC column and the MS detection and quantification was performed on a quadrupole time-of-flight (QTof) mass spectrometer in the positive ion mode.
# Concentrations of 2-octynoHA was quantified based on the calibration curve. In the PK 1, 2-octynoHA was detected at the m/z 156.1 with the retention time (RT) of 4.12 min. […] Concentration values below the lower limit of quantitation (LLOQ) (i.e., lowest amount of an analyte in a sample that can be quantitatively determined with suitable precision and accuracy) were considered equal to zero.
# Caco-2 cells [8] = details: human, 24 h
# Procedure: as §1, §2, §3
# [9] = TA98, TA100, TA1535, TA1537, with or without metabolic activation (S9)
# [10] = rat caecum content with urea, 30 min at 37° C., pH 6.8; read-out: IC50, bacterial urease inhibitory activity
smiles,measurement,setting,value
"CCCCCC#CC(=O)NO [2-octynoHA, N-hydroxyoct-2-ynamide]",IC50,"bacterial urease; read-out: IC50, bacterial urease inhibitory activity; rat caecum content with urea, 30 min at 37° C., pH 6.8",~38 µM
same,degradation in solution (UHPLC-UV),"[1]; 0.5 mg/mL in HBSS pH 7.4 with HEPES 15 mM, ca. 20 min at 37° C., analysed within ca. 1 h at room temperature",degraded
same,degradation in solution (UHPLC-UV),"[1]; 0.5 mg/mL in ultra-pure water, ca. 20 min at 37° C., analysed within ca. 1 h at room temperature",No degradation
same,degradation in solution (UHPLC-UV),"[1]; 10 mM in KH2PO4 200 mM pH 6.8, overnight at 37° C.",Complete degradation
same,mutagenicity (reverse mutations),[2],not mutagenic up to 1 mM
same,blood ammonia level on day 6,[3]; 15 mg/kg in HPβCD solution,20 ± 9.6 µM
same,Caco-2 cell viability (percentage of the medium control),Caco-2 cells [4],ca. 6%
same,concentration up to which no cytotoxicity was detected,Caco-2 cells [4]; Caco-2 cells,up to 1 mM
same,mean blood ammonia level three days after initiating treatment,[5],11 ± 5.68 µmol/L
same,mutagenicity (reverse mutations),[6]; [9],not mutagenic up to 1 mM
same,plasma concentration,"[7]; PK 3: P.O., 300 mg per dog, coated (Eudragit S100) gelatin capsule for colonic delivery",below LLOQ
same,bioavailability,"[7]; male, beagle, plasma, po, 300 mg, uncoated gelatin capsule, dose-adjusted AUC0-t of PK 1 and PK 2, read-out: bioavailability after oral administration",~4.5%
same,bioavailability,"[7]; male, beagle, plasma, po, delivery via a colonic capsule, read-out: oral bioavailability",~0%
same,Tmax,"[7]; male, beagle, plasma, po, PK 2: P.O., 300 mg per dog, uncoated gelatin capsule",30 min
same,AUC(0-t),"[7]; male, beagle, plasma, po, PK 2: P.O., 300 mg per dog, uncoated gelatin capsule, read-out: AUC0-t (t=12 h)",~213 ng·h/mL
same,AUC(0-t),"[7]; plasma, iv, PK 1: I.V., 100 mg per dog, solution with HPβCD (1:1), male beagle dogs, read-out: AUC0-t (t=4 h)",~1780 ng·h/mL
"C#CCCCCCC(=O)NO [7-octynoHA, 7-octynohydroxamic acid]",potency compared with unsaturated alkylated HAs having a double/triple bond at positions 2 or 3,"bacterial urease; rat caecum content assay, FIG. 6",lower potency
"CC(=O)NO [AHA, N-hydroxyacetamide]",IC50,bacterial urease; [10],7300 µM
same,mutagenicity (reverse mutations),"[6]; TA98, TA100 and TA1537 strains at 5 and 10 mM",mutagenic potential was detected
same,concentration up to which no cytotoxicity was detected,Caco-2 cells [8],up to 10 mM
"CCCCCCCC(=O)NO [OHA, N-hydroxyoctanamide, reference compound]",IC50,bacterial urease; [10],230 µM
same,mutagenicity (reverse mutations),[2],not mutagenic
same,Caco-2 cell viability (percentage of the medium control),Caco-2 cells [4],no live cells were observed
same,mutagenicity (reverse mutations),[6]; [9],not mutagenic
"OO [hydrogen peroxide, reference compound]",Caco-2 cell viability (percentage of the medium control),Caco-2 cells [4],1.79±6%
"CO[C@H]1/C=C/O[C@@]2(C)Oc3c(C)c(O)c4c(O)c(c5c(nc6cc(C)ccn65)c4c3C2=O)NC(=O)/C(C)=C\C=C\[C@H](C)[C@H](O)[C@@H](C)[C@@H](O)[C@@H](C)[C@H](OC(C)=O)[C@@H]1C [rifaximin, reference compound]",blood ammonia level on day 6,[3]; 30 mg/kg suspension,44 ± 22.4 µM
